Reference: PMC8474119, “Discovery and SAR Evolution of Pyrazole Azabicyclo[3.2.1]octane Sulfonamides as a Novel Class of Non-Covalent N-Acylethanolamine-Hydrolyzing Acid Amidase (NAAA) Inhibitors for Oral Administration” (Journal of Medicinal Chemistry, 2021)

Biological target: T1, h-NAAA (Homo sapiens, UniProt Q02083)
T1 construct: made in house; host or cells: HEK-293 cells stably overexpressing human NAAA; enzyme-enriched (lysosomal) lysate
T1 sequence (Q02083 29-125 limits assumed): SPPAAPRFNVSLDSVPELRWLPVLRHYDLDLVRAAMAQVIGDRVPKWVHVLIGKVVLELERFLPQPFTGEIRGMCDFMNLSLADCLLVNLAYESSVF
T1 sequence (Q02083 126-359 limits assumed): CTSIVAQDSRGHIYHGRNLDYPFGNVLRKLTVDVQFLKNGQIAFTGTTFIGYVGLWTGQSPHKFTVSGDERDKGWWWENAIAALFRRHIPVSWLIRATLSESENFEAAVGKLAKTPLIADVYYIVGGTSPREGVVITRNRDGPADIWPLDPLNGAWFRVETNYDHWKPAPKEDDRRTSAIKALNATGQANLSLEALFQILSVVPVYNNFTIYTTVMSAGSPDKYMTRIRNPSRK
Test: Fluorogenic human-NAAA assay (h-NAAA, fluo.)
Assay type: biochemical
Details: h-NAAA (fluo.); for IC50: mean ± SD (n ≥ 3), n.a.: not active @50 μM (<10% inhibition)
Procedure: Human recombinant proteins were obtained from HEK-293 stable overexpressing human NAAA, AC, and FAAH-1 cell lines, respectively. Cells were grown in Dulbecco’s modified Eagle medium (DMEM) containing 10% FBS, 1% glutamine, 1 mM sodium pyruvate, and 500 μg/mL geneticin (G418). To obtain a high-density cell proliferation, h-NAAA-HEK-293 cells were grown in BelloCell-500 bottle, a compact bioreactor. On the contrary, h-AC and h-FAAH-1-HEK-293 cells were grown in 150 mm dishes and scraped off with cold PBS 1× pH 7.4 at 80% confluence. Cell pellets were collected and stored at −80 °C until protein preparation.
HEK-293 cells stably transfected with the human NAAA or human AC coding sequences were used as the enzyme source. Cells were suspended in 20 mM Tris-HCl (pH 7.4) with 0.32 M sucrose, sonicated, and centrifuged at 800g for 30 min at 4 °C. Supernatants were then centrifuged at 12,000g for 30 min at 4 °C. Pellets were resuspended in PBS buffer (pH 7.4) and subjected to three freeze-thaw cycles at −80 °C. The suspension was finally centrifuged at 105,000g for 1 h at 4 °C, supernatants were collected, protein concentration was measured, and samples were aliquoted and stored at −80 °C until use.
The assay was run in 96-well microplates (Black OptiPlate-96 F; PerkinElmer, Massachusetts, USA), in a total reaction volume of 200 μL. h-NAAA protein preparation (4 μg) was preincubated for 30 min with various concentrations of test compounds or vehicle control (DMSO 5%) in 100 mM citrate/phosphate buffer (pH 4.5) containing 3.0 mM DTT, 0.1% NP40, 0.05% BSA, and 150 mM NaCl. The background (no activity) samples were prepared using assay buffer without h-NAAA and DMSO (5%). N-(4-methyl-2-oxo-chromen-7-yl)-hexadecanamide (PAMCA)[60] was used as a substrate (2 μM) and the reaction was carried out for 50 min at 37 °C. Fluorescence was measured with EnVision 2014 Multilabel Reader (PerkinElmer, Massachusetts, USA) using an excitation wavelength of 355 nm and an emission of 460 nm. IC50 values were calculated by non-linear regression analysis of log[concentration]/response curves generated with mean replicate values using a four-parameter Hill equation curve fitting with GraphPad Prism 5 (GraphPad Software Inc., CA, USA).

Row | SMILES | h-NAAA inhibitory activity, in words | IC50 [nM]
1 | Cc1n[nH]c(C)c1S(=O)(=O)N1C[C@H]2CCC[C@@H](C1)[C@@H]2Oc1cnccn1 [Compound 29, (1R,5S,9s)-3-((3,5-Dimethyl-1H-pyrazol-4-yl)sulfonyl)-9-(pyrazin-2-yloxy)-3-azabicyclo[3.3.1]nonane] |  | 690 ± 60
2 | Cc1[nH]nc(C(C)C)c1S(=O)(=O)N1CCC(Oc2cnccn2)CC1 [Compound 11, 2-((1-((3-isoPropyl-5-methyl-1H-pyrazol-4-yl)sulfonyl)piperidin-4-yl)oxy)pyrazine] |  | 640 ± 140
3 | CCc1n[nH]c(CC)c1S(=O)(=O)N1CCC(Oc2cnccn2)CC1 [Compound 15, 2-((1-((3,5-Diethyl-1H-pyrazol-4-yl)sulfonyl)piperidin-4-yl)oxy)pyrazine] |  | 1110 ± 310
4 | Cc1n[nH]c(C)c1S(=O)(=O)N1[C@@H]2CC[C@H]1C[C@@H](Oc1ccc(CCC(C)C)cc1)C2 [Compound 42, (1R,3r,5S)-8-((3,5-Dimethyl-1H-pyrazol-4-yl)sulfonyl)-3-(4-isopentylphenoxy)-8-azabicyclo[3.2.1]octane] |  | 114 ± 10
5 | Cc1ccc(O[C@H]2C[C@H]3CC[C@@H](C2)N3S(=O)(=O)c2c(C)n[nH]c2C)cc1 [Compound 33, (1R,3r,5S)-8-((3,5-Dimethyl-1H-pyrazol-4-yl)sulfonyl)-3-(p-tolyloxy)-8-azabicyclo[3.2.1]octane] |  | 36 ± 4
6 | Cc1[nH]nc(C(C)(C)C)c1S(=O)(=O)N1CCC(Oc2cnccn2)CC1 [Compound 12, 2-((1-((3-(tert-Butyl)-5-methyl-1H-pyrazol-4-yl)sulfonyl)piperidin-4-yl)oxy)pyrazine] |  | 780 ± 120
7 | Cc1n[nH]c(C)c1S(=O)(=O)N1[C@@H]2CC[C@H]1C[C@H](Oc1ccccc1)C2 [Compound 32, (1R,3s,5S)-8-((3,5-Dimethyl-1H-pyrazol-4-yl)sulfonyl)-3-phenoxy-8-azabicyclo[3.2.1]octane] |  | 655 ± 45
8 | COc1ccc(O[C@H]2C[C@H]3CC[C@@H](C2)N3S(=O)(=O)c2c(C)n[nH]c2C)cc1 [Compound 44, (1R,3r,5S)-8-((3,5-Dimethyl-1H-pyrazol-4-yl)sulfonyl)-3-(4-methoxyphenoxy)-8-azabicyclo[3.2.1]octane] |  | 175 ± 15
9 | CCCc1n[nH]c(C)c1S(=O)(=O)N1CCC(Oc2cnccn2)CC1 [Compound 9, 2-((1-((5-Methyl-3-propyl-1H-pyrazol-4-yl)sulfonyl)piperidin-4-yl)oxy)pyrazine] |  | 330 ± 40
10 | Cc1n[nH]c(C)c1S(=O)(=O)N1[C@@H]2COC[C@H]1C[C@@H](Oc1cnccn1)C2 [Compound 26, (1R,5S,7s)-9-((3,5-Dimethyl-1H-pyrazol-4-yl)sulfonyl)-7-(pyrazin-2-yloxy)-3-oxa-9-azabicyclo[3.3.1]nonane] |  | 2330 ± 830
11 | CCCCc1n[nH]c(C)c1S(=O)(=O)N1CCC(Oc2cnccn2)CC1 [Compound 10, 2-((1-((3-Butyl-5-methyl-1H-pyrazol-4-yl)sulfonyl)piperidin-4-yl)oxy)pyrazine] |  | 910 ± 130
12 | Cc1cccc(OC2CC3CCC(C2)N3S(=O)(=O)c2c(C)n[nH]c2C)c1 [Compound 35, (1R,3r,5S)-8-((3,5-Dimethyl-1H-pyrazol-4-yl)sulfonyl)-3-(m-tolyloxy)-8-azabicyclo[3.2.1]octane] |  | 614 ± 140
13 | Cc1ccc(O[C@@H]2C[C@H]3CC[C@@H](C2)N3S(=O)(=O)c2c(C)n[nH]c2C)cc1 [Compound 34, (1R,3s,5S)-8-((3,5-Dimethyl-1H-pyrazol-4-yl)sulfonyl)-3-(p-tolyloxy)-8-azabicyclo[3.2.1]octane] |  | 8710 ± 340

Now from value to molecule, other results behind:

Row | h-NAAA inhibitory activity, in words | SMILES | IC50 [nM]
14 | abolished the inhibitory activity | Cc1n[nH]c(C)c1S(=O)(=O)N1CCC(Cc2cnccn2)CC1 [Compound 23, 2-((1-((3,5-Dimethyl-1H-pyrazol-4-yl)sulfonyl)piperidin-4-yl)methyl)pyrazine] | 
15 | inactive | Cc1n[nH]c(C)c1S(=O)(=O)N1C[C@H]2CCC[C@@H](C1)[C@H]2Oc1cnccn1 [Compound 28, (1R,5S,9r)-3-((3,5-Dimethyl-1H-pyrazol-4-yl)sulfonyl)-9-(pyrazin-2-yloxy)-3-azabicyclo[3.3.1]nonane] | 
16 | complete loss of inhibitory effect | Cc1nn(C)c(C)c1S(=O)(=O)N1CCC(Oc2cnccn2)CC1 [Compound 4, 2-((1-((1,3,5-Trimethyl-1H-pyrazol-4-yl)sulfonyl)piperidin-4-yl)oxy)pyrazine] | 
